Test [1] in a line: Antioxidant activity assessed as DPPH radical scavenging activity after 30 mins. Format: functional.
The subject of the next test is BV-2. The test is described as follows: Antineuroinflammatory activity in mouse BV2 cells assessed as inhibition of LPS-induced NO production incubated for 24 hrs by Griess assay. The test is classed as functional, cell-based. The following applies: BV-2, 24 h.

Regarding `O=C1C[C@H](C(=O)O)c2c1oc(=O)c1cc(O)c(O)c(O)c21`, the EC50 (commonly the concentration giving half of the maximal effect) in test [1] worked out at 3 µM.
Turning to `COC(=O)[C@H]1CC(=O)c2oc(=O)c3cc(O)c(O)c(O)c3c21`, in test [1], the EC50 turned out to be 6 µM.
On to `CCOC(=O)/C=C(/C(=O)O)[C@H]1c2c(cc(O)c(O)c2O)C(=O)O[C@@H]1C(=O)OCC`, for which the EC50 in test [1] stood at 8.1 µM.
The same measure, in the same setting: as for `O=C(O)Cc1c2c3c(cc(O)c(O)c3oc1=O)C(=O)OC2`, the figure is 4.7 µM.
Take `CCOC(=O)[C@H]1OC(=O)c2cc(O)c(O)c(O)c2[C@@H]1[C@@H](CC(=O)O)C(=O)OCC`: in test [1], the EC50 was determined as 8.1 µM.
As to `CCOC(=O)/C=C(/C(=O)OCC)[C@H]1c2c(cc(O)c(O)c2O)C(=O)O[C@@H]1C(=O)OC`, the 50% effective concentration (EC50) in test [1] worked out at 4.4 µM.
As for `CCOC(=O)C[C@@H](C(=O)OCC)[C@H]1c2c(cc(O)c(O)c2O)C(=O)O[C@@H]1C(=O)OCC`, the EC50 in test [1] is 6.8 µM.
Same read-out and setting: as for `CCOC(=O)/C=C(/C(=O)OC)[C@H]1c2c(cc(O)c(O)c2O)C(=O)O[C@@H]1C(=O)OCC`, the figure is 6 µM; as for `CCOC(=O)/C=C(/C(=O)OCC)[C@H]1c2c(cc(O)c(O)c2O)C(=O)O[C@@H]1C(=O)OCC`, 2.2 µM; as for `CCOC(=O)/C=C(/C(=O)OCC)[C@H]1c2c(cc(O)c(O)c2O)C(=O)O[C@@H]1C(=O)O`, 5.4 µM.
For the compound `CCOC(=O)[C@H]1CC(=O)c2oc(=O)c3cc(O)c(O)c(O)c3c21`, the concentration for half-maximal inhibition (IC50) (as a rule, the midpoint of a concentration-inhibition curve) in the test with BV-2 was found to be 30.5 µM. Further, in test [1], the 50% effective concentration (EC50) was determined as 6.7 µM.
`COC(=O)Cc1c2c3c(cc(O)c(O)c3oc1=O)C(=O)OC2`: the concentration giving a half-maximal response (EC50) in test [1] is 8 µM.
The same measure, in the same setting: as for `CCOC(=O)[C@H]1CC(=O)c2c1c1c(O)c(O)c(O)cc1c(=O)n2CCCC(=O)OC`, the figure is 6.7 µM; as for `CCOC(=O)C[C@@H](C(=O)O)[C@H]1c2c(cc(O)c(O)c2O)C(=O)O[C@@H]1C(=O)OCC`, 15.8 µM; as for `CCOC(=O)Cc1c2c3c(cc(O)c(O)c3oc1=O)C(=O)OC2`, 2.2 µM.
Same read-out and setting: the figure for `CCOC(=O)/C(=C/C(=O)O)[C@H]1c2c(cc(O)c(O)c2O)C(=O)O[C@@H]1C(=O)OCC` is 10.8 µM.
For the compound `O=C1CCc2c1oc(=O)c1cc(O)c(O)c(O)c21`, the IC50 in the test with BV-2 was found to be 27 µM. Besides, the EC50 in test [1] amounted to 7.6 µM.
As for `CCOC(=O)Cc1c2c3c(cc(O)c(O)c3oc1=O)C(=O)OC2C(=O)OCC` (racemic), the EC50 in test [1] stood at 4.2 µM.
Consider `CCOC(=O)C1(OCC)CC(=O)c2oc(=O)c3cc(O)c(O)c(O)c3c21` (racemic), for which the EC50 in test [1] amounted to 4 µM.
On the same count and under the same terms, the figure for `COC(=O)C1OC(=O)c2cc(O)c(O)c3oc(=O)c(CC(=O)O)c1c23` (racemic) is 7.7 µM.
Still for that read-out and setting: the figure for `CCOC(=O)C1OC(=O)c2cc(O)c(O)c3oc(=O)c(CC(=O)O)c1c23` (racemic) is 9.9 µM.
As for `CCOC(=O)Cc1c2c3c(cc(O)c(O)c3oc1=O)C(=O)C2(O)C(=O)OCC` (racemic), in the test with BV-2, the concentration for half-maximal inhibition (IC50) came out at 31.5 µM. In test [1], the EC50 was found to be 5.3 µM.
On to `CCOC(=O)Cc1c2c3c(cc(O)c(O)c3oc1=O)C(=O)OC2C(=O)OC` (racemic), for which the EC50 in test [1] is 6.5 µM.
Still for that read-out and setting: the figure for `O=C1O[C@H]([C@@H](O)CO)C(O)=C1O` [ASCORBIC ACID] is 9.2 µM.
Turning to `CN(C)c1ccc(O)c2c1C[C@H]1C[C@H]3[C@H](N(C)C)C(O)=C(C(N)=O)C(=O)[C@@]3(O)C(O)=C1C2=O` [MINOCYCLINE], the 50% inhibitory concentration (IC50) in the test with BV-2 was 18.5 µM.

For the origin of these results see ChEMBL document CHEMBL4610075, “Isolation, Absolute Configuration, and Biological Activities of Chebulic Acid and Brevifolincarboxylic Acid Derivatives from Euphorbia hirta” (J Nat Prod, 2020).
